Key:
[1] = target: T1, Inhibitor of nuclear factor kappa-B kinase subunit beta (Homo sapiens, UniProt O14920); assay: IKK Kinase Inhibition Assay; settings: pH 7.4; 22 °C
T1 sequence (O14920 whole entry): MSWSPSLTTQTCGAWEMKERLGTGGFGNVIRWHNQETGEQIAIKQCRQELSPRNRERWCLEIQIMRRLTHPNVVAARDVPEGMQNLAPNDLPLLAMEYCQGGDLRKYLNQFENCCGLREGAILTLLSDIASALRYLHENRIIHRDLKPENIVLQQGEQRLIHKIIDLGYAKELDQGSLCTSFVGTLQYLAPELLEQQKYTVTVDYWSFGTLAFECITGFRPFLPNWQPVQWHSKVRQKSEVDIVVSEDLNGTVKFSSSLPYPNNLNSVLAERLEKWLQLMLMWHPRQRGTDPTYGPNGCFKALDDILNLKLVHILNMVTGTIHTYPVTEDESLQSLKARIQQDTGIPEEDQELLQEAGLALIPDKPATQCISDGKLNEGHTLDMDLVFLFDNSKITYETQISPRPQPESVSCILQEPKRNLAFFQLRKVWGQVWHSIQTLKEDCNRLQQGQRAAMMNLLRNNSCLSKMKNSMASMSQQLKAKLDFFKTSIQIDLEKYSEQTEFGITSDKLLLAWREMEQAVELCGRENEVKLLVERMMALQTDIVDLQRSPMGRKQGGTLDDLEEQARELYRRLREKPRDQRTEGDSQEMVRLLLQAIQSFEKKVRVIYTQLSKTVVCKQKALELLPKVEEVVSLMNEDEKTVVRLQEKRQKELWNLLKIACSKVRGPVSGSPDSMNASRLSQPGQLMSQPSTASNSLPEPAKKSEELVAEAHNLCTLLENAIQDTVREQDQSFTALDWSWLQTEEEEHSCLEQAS
Procedure: (§1) IKK kinase activity was assessed using a time-resolved fluorescence resonance energy transfer (TR-FRET) assay. The reaction was initiated by the addition of GST-IKBalpha substrate/ATP to the reaction buffer containing IKK kinase and test compounds. After incubation, detection reagent containing antiphosphoserine IKBalpha monoclonal antibody labelled with europium chelate, and an APC-labelled anti-GST antibody was added.

[2] = target: Serine/threonine-protein kinase PLK1 (Homo sapiens, UniProt P53350); assay: Scintillation Proximity Assay (SPA); settings: pH 7.2; 22 °C
Sequence of Serine/threonine-protein kinase PLK1 (P53350 whole entry): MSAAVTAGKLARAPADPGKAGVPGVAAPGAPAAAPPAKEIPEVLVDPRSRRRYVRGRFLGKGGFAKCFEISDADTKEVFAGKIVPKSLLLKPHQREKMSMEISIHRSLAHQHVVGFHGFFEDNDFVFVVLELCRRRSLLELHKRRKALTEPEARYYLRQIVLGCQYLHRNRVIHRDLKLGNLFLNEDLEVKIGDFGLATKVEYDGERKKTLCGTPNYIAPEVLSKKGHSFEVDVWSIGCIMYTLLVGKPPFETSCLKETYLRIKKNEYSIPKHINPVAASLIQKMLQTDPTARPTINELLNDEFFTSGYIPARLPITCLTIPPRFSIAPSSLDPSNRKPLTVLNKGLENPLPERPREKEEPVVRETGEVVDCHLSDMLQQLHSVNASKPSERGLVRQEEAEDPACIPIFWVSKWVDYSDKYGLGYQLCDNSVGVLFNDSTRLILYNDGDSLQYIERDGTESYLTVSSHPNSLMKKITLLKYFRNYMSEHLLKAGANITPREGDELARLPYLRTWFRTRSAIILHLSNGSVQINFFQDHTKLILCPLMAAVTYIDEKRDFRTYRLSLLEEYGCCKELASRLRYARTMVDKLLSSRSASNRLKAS
Procedure: The compound inhibitory activity was determined by incubation with purified PLK1 and biotinylated peptide substrate in the presence ATP/[gamma-33P]ATP. After incubation, the phosphorylated substrate was separated from nonincorporated radioactive ATP using SPA beads. Incorporated radioactivity was measured using Packard TopCount.

[3] = target: T2, Inhibitor of nuclear factor kappa-B kinase subunit epsilon (Homo sapiens, UniProt Q14164); assay: IKK Kinase Inhibition Assay; settings: pH 7.4; 22 °C
T2 sequence (Q14164 whole entry): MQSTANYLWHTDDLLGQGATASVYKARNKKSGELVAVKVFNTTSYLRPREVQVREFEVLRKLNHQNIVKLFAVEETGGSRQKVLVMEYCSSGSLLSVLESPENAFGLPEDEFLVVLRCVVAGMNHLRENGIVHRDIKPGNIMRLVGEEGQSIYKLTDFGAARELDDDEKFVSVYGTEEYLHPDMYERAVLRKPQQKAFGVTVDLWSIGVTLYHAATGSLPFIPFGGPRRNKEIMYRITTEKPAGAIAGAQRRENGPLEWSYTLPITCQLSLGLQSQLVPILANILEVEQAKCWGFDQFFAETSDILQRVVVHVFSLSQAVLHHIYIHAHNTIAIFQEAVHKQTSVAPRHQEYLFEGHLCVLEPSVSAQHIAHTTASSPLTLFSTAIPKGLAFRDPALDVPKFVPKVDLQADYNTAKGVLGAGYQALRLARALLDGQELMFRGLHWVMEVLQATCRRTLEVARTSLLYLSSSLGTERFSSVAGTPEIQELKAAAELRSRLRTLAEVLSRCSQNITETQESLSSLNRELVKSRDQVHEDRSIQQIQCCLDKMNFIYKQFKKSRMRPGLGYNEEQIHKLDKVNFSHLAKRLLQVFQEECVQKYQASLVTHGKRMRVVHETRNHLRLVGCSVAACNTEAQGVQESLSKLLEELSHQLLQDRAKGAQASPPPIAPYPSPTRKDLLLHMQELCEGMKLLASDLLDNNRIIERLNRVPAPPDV
Procedure: as §1

| IC50 [1] [µM] | IC50 [2] [µM] | IC50 [3] [µM] | SMILES |
| --- | --- | --- | --- |
| > 15.8 | > 10 | – | COc1cc2ncn(-c3cc(OCC4CCCO4)c(C#N)s3)c2cc1OC (stereo not given) [5-(5,6-dimethoxy-1H-1,3-benzodiazol-1-yl)-3-(oxolan-2-ylmethoxy)thiophene-2-carbonitrile] |
| > 15.8 | – | > 15.8 | COc1cc2ncn(-c3cc(OCC4CCCO4)c(C(N)=O)s3)c2cc1OC (stereo not given) [5-(5,6-dimethoxy-1H-1,3-benzodiazol-1-yl)-3-(oxolan-2-ylmethoxy)thiophene-2-carboxamide] |
| > 15.8 | – | – | COc1cc2ncn(-c3cc(OCc4ccccc4S(C)(=O)=O)c(C#N)s3)c2cc1OC [5-(5,6-dimethoxy-1H-1,3-benzodiazol-1-yl)-3-[(2-methanesulfonylphenyl)methoxy]thiophene-2-carbonitrile] |
| > 15.8 | – | – | COc1cc2ncn(-c3cc(OCc4ccc(S(C)(=O)=O)cc4)c(C#N)s3)c2cc1OC [5-(5,6-dimethoxy-1H-1,3-benzodiazol-1-yl)-3-[(4-methanesulfonylphenyl)methoxy]thiophene-2-carbonitrile] |
| – | 0.126 | 3.98 | Cc1ccc(COc2cc(-n3cnc4ccccc43)sc2C(N)=O)cc1 [BMCL191018 Compound 9] |
| > 15.8 | – | > 15.8 | COc1cc2ncn(-c3cc(OCc4ccc(S(C)(=O)=O)cc4)c(C(N)=O)s3)c2cc1OC [BMCL191018 Compound 39] |
